In brackets after ≈: the same amount, converted by molar mass.
Experiments:
Format in all cases: functional
Cryptococcus neoformans [1] = test: Antifungal activity against Cryptococcus neoformans H99 by CLSI protocol-based broth serial dilution method
Cryptococcus neoformans [2] = test: Antifungal activity against Cryptococcus neoformans JEC21 by CLSI protocol-based broth serial dilution method
Candida albicans = test: Antifungal activity against Candida albicans SC5314 by CLSI protocol-based broth serial dilution method

SMILES	MIC (Cryptococcus neoformans [1]) [µM]	MIC (Cryptococcus neoformans [2]) [µM]	MIC (Candida albicans) [µM]
COc1c(O)cc(C(=O)O)cc1O	67.9 (≈ 12.5 µg/mL)	272 (≈ 50 µg/mL)	> 272
O=C(O[C@H]1[C@H](c2c(O)cc(O)c3c2O[C@H](c2ccc(O)c(O)c2)[C@@H](O)C3)c2c(O)cc(O)cc2O[C@@H]1c1ccc(O)c(O)c1)c1cc(O)c(O)c(O)c1	4.2 (≈ 3.07 µg/mL)	8.5 (≈ 6.21 µg/mL)	17.1 (≈ 12.5 µg/mL)
O=C(Oc1cc(O)c2c(c1)O[C@H](c1ccc(O)c(O)c1)[C@@H](O)C2)c1cc(O)c(O)c(O)c1	1.8 (≈ 0.796 µg/mL)	–	56.6 (≈ 25 µg/mL)
O=C(Oc1ccc([C@H]2Oc3cc(O)cc(O)c3C[C@@H]2O)cc1O)c1cc(O)c(O)c(O)c1	113 (≈ 50 µg/mL)	113 (≈ 50 µg/mL)	56.6 (≈ 25 µg/mL)
COc1cc(O)c2c(=O)c(O)c(-c3ccc(O[C@@H]4O[C@H](CO)[C@@H](O)[C@H](O)[C@H]4O)c(O)c3)oc2c1	52.3 (≈ 25 µg/mL)	105 (≈ 50 µg/mL)	> 105
COc1cc(O)c2c(=O)c(O[C@@H]3O[C@@H](C)[C@H](O)[C@@H](O)[C@H]3O)c(-c3ccc(O)c(O)c3)oc2c1	27 (≈ 12.5 µg/mL)	–	> 433
COc1cc(O)c2c(=O)c(O[C@@H]3O[C@@H](C)[C@H](O)[C@@H](O)[C@H]3O)c(-c3ccc(O)cc3)oc2c1	56 (≈ 25 µg/mL)	56 (≈ 25 µg/mL)	> 112
C[C@]12OC(=O)C[C@H]1[C@H]1Oc3cc(O)cc(O)c3C[C@H]1O2	180 (≈ 50 µg/mL)	180 (≈ 50 µg/mL)	> 180
O=C(Oc1cc([C@H]2Oc3cc(O)cc(O)c3C[C@@H]2O)ccc1O)c1cc(O)c(O)c(O)c1	113 (≈ 50 µg/mL)	113 (≈ 50 µg/mL)	> 113
O=C(Oc1cc(O)c2c(c1)O[C@H](c1ccc(O)c(O)c1)CC2)c1cc(O)c(O)c(O)c1	1.9 (≈ 0.81 µg/mL)	3.8 (≈ 1.62 µg/mL)	14.8 (≈ 6.31 µg/mL)
O=C(Oc1cc(O)c2c(c1)O[C@@H](c1ccc(O)c(O)c1)CC2)c1cc(O)c(O)c(O)c1	1.9 (≈ 0.81 µg/mL)	3.8 (≈ 1.62 µg/mL)	14.8 (≈ 6.31 µg/mL)
COc1cc(O)c2c(=O)c(O[C@@H]3O[C@H](COC(=O)c4cc(O)c(O)c(O)c4)[C@@H](O)[C@H](O)[C@H]3O)c(-c3ccc(O)c(O)c3)oc2c1	10 (≈ 6.31 µg/mL)	–	> 317
CC(=O)[C@@H](CC(=O)O)[C@H]1Oc2cc(O)cc(O)c2C[C@@H]1O	169 (≈ 50 µg/mL)	169 (≈ 50 µg/mL)	> 169
O=C(OC[C@H]1O[C@@H](Oc2c(-c3ccc(O)c(O)c3)oc3cc(O)cc(O)c3c2=O)[C@H](O)[C@@H](O)[C@@H]1O)c1cc(O)c(O)c(O)c1	2.6 (≈ 1.6 µg/mL)	–	> 325
Oc1cc(O)c2c(c1)O[C@H](c1ccc(O)c(O)c1)[C@@H](O)[C@@H]2c1c(O)cc(O)c2c1O[C@H](c1ccc(O)c(O)c1)[C@@H](O)C2	5.4 (≈ 3.12 µg/mL)	5.4 (≈ 3.12 µg/mL)	> 86.5
O=C(OC[C@H]1O[C@@H](Oc2c(-c3ccc(O)cc3)oc3cc(O)cc(O)c3c2=O)[C@H](O)[C@@H](O)[C@@H]1O)c1cc(O)c(O)c(O)c1	20.8 (≈ 12.5 µg/mL)	83.3 (≈ 50 µg/mL)	> 83.3
Oc1cc(O)c2c(c1)O[C@H](c1ccc(O)c(O)c1)[C@@H](O)C2 [CIANIDANOL]	10.7 (≈ 3.11 µg/mL)	–	> 690
CCOC(=O)c1cc(O)c(O)c(O)c1 [ETHYLGALLATE]	126 (≈ 25 µg/mL)	252 (≈ 50 µg/mL)	> 252
OC(Cn1cncn1)(Cn1cncn1)c1ccc(F)cc1F [FLUCONAZOLE]	25.5 (≈ 7.81 µg/mL)	6.5 (≈ 1.99 µg/mL)	1.6 (≈ 0.49 µg/mL)
O=C(O)c1cc(O)c(O)c(O)c1 [GALLIC ACID]	147 (≈ 25 µg/mL)	147 (≈ 25 µg/mL)	> 294
O=c1c(O[C@@H]2O[C@H](CO)[C@@H](O)[C@H](O)[C@H]2O)c(-c2ccc(O)c(O)c2)oc2cc(O)cc(O)c12 [ISOQUERCETIN]	53.9 (≈ 25 µg/mL)	108 (≈ 50 µg/mL)	> 108

From ChEMBL document CHEMBL4665695, “Antifungal Phenols from Woodfordia uniflora Collected in Oman” (2020)
